{"source": "ChEMBL document CHEMBL1145550", "about": "“Halichonadin E, a dimeric sesquiterpenoid from the sponge Halichondria sp” (J Nat Prod, 2008)", "key": {"[1]": {"tested_on": "L1210", "experiment": "Cytotoxicity against mouse L1210 cells", "type": "functional, cell-based"}, "[2]": {"tested_on": "KB", "experiment": "Cytotoxicity against human KB cells", "type": "functional, cell-based"}}}
{"smiles": "C=C1CCC[C@]2(C)CC[C@@H](C(C)C)[C@H](NC(=O)N[C@]3(C)CC[C@@H]4[C@H]([C@@H]5[C@H](C)CC[C@H]53)C4(C)C)[C@@H]12", "note": "[HALICHONADIN E]", "values": [{"measurement": "IC50", "setting": "[1]", "result": 3, "unit": "µg/mL"}, {"measurement": "IC50", "setting": "[2]", "result": 2.6, "unit": "µg/mL"}]}
